A short description of data set [1]: Induction of apoptosis in human KMM-1 cells assessed as apoptotic cells at 10 uM after 72 hrs by Annexin V/PropidiumIodide staining based flow cytometric analysis relative to control. The format is functional.
Data set [2] has as its system MM.1R. As to the kind of experiment: Down regulation of IKZF1 protein expression in human MM1.R cells at 10 to 50 uM after 48 hrs by immunoblotting analysis. The format is functional, cell-based. Conditions: dose 10-50 µM.
Data set [3] in a line: Growth inhibition of human MM1.R cells at 100 uM after 48 hrs by PrestoBlue cell viability assay relative to control. Conditions: MM.1R, read-out: GI. The format is functional.
A short description of data set [4]: Cytotoxicity against human Mononuclear cells assessed as reduction in cll viability at 10 uM after 48 hrs by PrestoBlue cell viability assay. The format is cell-based. Conditions: mononuclear cell line.
Data set [5] in a line: Induction of apoptosis in human KMM-1 cells assessed as late apoptotic cells at 10 uM after 72 hrs by Annexin V/PropidiumIodide staining based flow cytometric analysis (reference value: 4 +/- 0.5%). The class given is functional.
Data set [6] relates to MM.1R. Description: Down regulation of IRF4 protein expression in human MM1.R cells at 10 to 50 uM after 48 hrs by immunoblotting analysis. Conditions: dose 10-50 µM. The class given is functional, cell-based.
Data set [7] can be described thus: Induction of apoptosis in human KMM-1 cells assessed as necrotic cells at 10 uM after 72 hrs by Annexin V/PropidiumIodide staining based flow cytometric analysis (reference value: 8 +/-1%). The class given is functional.
A short description of data set [8]: Induction of apoptosis in human KMM-1 cells assessed as viable cells at 10 uM after 72 hrs by Annexin V/PropidiumIodide staining based flow cytometric analysis (reference value: 87 +/- 1%). The format is functional. Conditions: read-out: Activity.
The subject of data set [9] is JJN-3. Description: Down regulation of IKZF1 protein expression in human JJN-3 cells at 10 to 50 uM after 48 hrs by immunoblotting analysis. The format is functional, cell-based. Conditions: dose 10-50 µM.
A short description of data set [10]: Induction of apoptosis in human MM1.R cells assessed as apoptotic cells at 10 uM after 72 hrs by Annexin V/PropidiumIodide staining based flow cytometric analysis relative to control. The format is functional, MM.1R.
A short description of data set [11]: Growth inhibition of human KMM-1 cells at 10 to 100 uM after 72 hrs by PrestoBlue cell viability assay relative to control. The format is functional. Conditions: dose 10-100 µM.
The test system of data set [12] is JJN-3. Description: Down regulation of IRF4 protein expression in human JJN-3 cells at 10 to 50 uM after 48 hrs by immunoblotting analysis. Conditions: dose 10-50 µM. The class given is functional, cell-based.
Data set [13] deals with B cell. As to the kind of experiment: Cytotoxicity against human naive B cells assessed as reduction in cll viability at 10 uM after 48 hrs by PrestoBlue cell viability assay. The format is cell-based.
In data set [14] the test system is MM.1R. As to the kind of experiment: Down regulation of IKZF3 protein expression in human MM1.R cells at 10 to 50 uM after 48 hrs by immunoblotting analysis. Conditions: dose 10-50 µM. The format is functional, cell-based.
Data set [15] is described as follows: Growth inhibition of human KMM-1 cells at 10 uM after 48 hrs by PrestoBlue cell viability assay relative to control. The class given is functional. Conditions: read-out: GI.
The nature of data set [16]: Induction of apoptosis in human KMM-1 cells assessed as early apoptotic cells at 10 uM after 72 hrs by Annexin V/PropidiumIodide staining based flow cytometric analysis (reference value: 1 +/- 0.4%). The class given is functional.

Each structure is given as a SMILES string. Calls of active or inactive are those of the source. The rule behind the calls is not given here.

Turning to `Nc1cccc2c1CN(C1CCC(=O)NC1=O)C2=O` (stereo unspecified) [LENALIDOMIDE], the Activity in data set [1] was 17.4%; in data set [4], “Non-Toxic”; in data set [5] it was 6%; in data set [7], 12%; in data set [10], 46%; in data set [13] it was “Non-Toxic”. Besides, in data set [16], the Activity worked out at 4%. For the same compound, the result in [2], in [9] and in data set [12] was Active. Besides, the inhibition of growth at 100 µM in data set [3] stood at 47%. Moreover, the result in data set [6] and in data set [14] was inactive. Further, the viability at 10 µM in [8] was found to be 78%. Also, the “growth inhibition (GI)” value in data set [11] is over 25%. The inhibition of growth at 10 µM in data set [15] is 7.5%.

Source of the values: ChEMBL document CHEMBL4715865, “Antimyeloma Potential of Caffeic Acid Phenethyl Ester and Its Analogues through Sp1 Mediated Downregulation of IKZF1-IRF4-MYC Axis” (J Nat Prod, 2020).
